# Measurements from PubChem BioAssay (NCI).
# Values joined by “and” are separate entries in the source; they are usually repeats but may differ in a detail not shown here. Equal entries are not always repeated.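 The compound was tested at five concentrations on cells cultured in 96-well plates, with a 48-hour exposure period. At the GI50, growth is halved. TGI denotes the concentration required for complete inhibition of growth.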
# Experiments:
# Assay in all cases: NCI-60 cell line screen, 48 h
# [1] = tested on: UACC-257 melanoma
# [2] = tested on: SK-MEL-2 melanoma
# [3] = tested on: CAKI-1 renal
# [4] = tested on: UACC-62 melanoma
# [5] = tested on: HOP-62 NSCLC
# [6] = tested on: KM12 colon
# [7] = tested on: K-562 leukemia
# [8] = tested on: A549 NSCLC
# [9] = tested on: A498 renal
# [10] = tested on: NCI-H460 lung
Structure (SMILES),TGI [1],TGI [2],TGI [3] [µM],TGI [4] [µM],TGI [5] [µM],TGI [6] [µM],TGI [7] [µM],TGI [8] [µM],TGI [9] [µM],TGI [10] [µM],GI50 [1],GI50 [2],GI50 [3],GI50 [4],GI50 [5],GI50 [6],GI50 [7],GI50 [8],GI50 [9],GI50 [10]
COC(=O)C1CCc2c1c(=O)n1c([nH]c3ccccc31)c2C#N (centres undefined),> 100 µM,> 100 µM,> 100,> 100,> 100,> 100,> 100,> 100,> 100,> 100,,,,,,,,,,
CC(C)(CN1CCCCC1)C(=O)/C=C/c1ccc(/C=C/C(=O)C(C)(C)CN2CCCCC2)cc1,2.13 µM,4.62 µM,0.904,2.35,2.19,1.35,0.375,2.97,3.08,1.96,,,,,,,,,,
Cc1cccc(N(C)C(=O)[C@@H]2[C@H](O)CCN2c2nc(C)cc(C(F)(F)F)c2C#N)c1,> 100 µM,35 µM,> 100,74.5,> 100,> 100,> 100,> 100,69.8,> 100,28.3 µM,15.9 µM,29.1 µM,21.9 µM,25.8 µM,28.2 µM,0.747 µM,21.9 µM,21.9 µM,31.8 µM
CCN(CC)c1ccc(/C=N/NC(=O)CSc2nc3ccccc3c(=O)n2CCc2ccc(S(N)(=O)=O)cc2)c(O)c1,69.1 µM,> 100 µM,> 100,6.37,> 100,> 100,> 100,> 100,> 100,> 100,3.25 µM,4.34 µM,1.84 µM,1.73 µM,1.86 µM,1.56 µM,1.75 µM,3.1 µM,> 100 µM,0.595 µM
COc1ccc2c(c1)/C(=C\c1c(-c3cc(OC)ccc3OC)nc3sc(C)cn13)C(=O)N2C,45.9 µM,38.5 µM,86,44.5,> 100,> 100,> 100,> 100,98.7,93.9,23.5 µM,17.3 µM,18.3 µM,17.3 µM,26.3 µM,37.7 µM,28 µM,38.6 µM,27.2 µM,24.9 µM
COc1ccc(/C=C/C(=O)c2cc(OC)c(OC)c(OC)c2)cc1OCC(=O)Nc1nc2ccc(OC(F)(F)F)cc2s1,> 100 µM,27.1 µM,6.03,42.1,4.33,4.19,10.2,4.7,31.7,6.25,8.08 µM,4.97 µM,2.2 µM,9.52 µM,2.12 µM,1.51 µM,0.438 µM,1.99 µM,7.4 µM,2.43 µM
N#Cc1cc(C#N)c(N)nc1N,> 100 µM,> 100 µM,> 100,> 100,> 100,> 100,> 100,> 100,> 100,> 100,,,,,,,,,,
Cc1nc([P+](c2ccccc2)(c2ccccc2)c2ccccc2)c(Sc2sc(-c3ccccc3)nc2[P+](c2ccccc2)(c2ccccc2)c2ccccc2)o1,8.81 µM,4.92 µM,9.71,3.67,13.2,3.35,5.9,10.7,4.68,2.8,2 µM,2.15 µM,2.69 µM,1.51 µM,2.08 µM,1.39 µM,0.368 µM,1.87 µM,1.5 µM,1.13 µM
CC1=Nc2ccccc2S/C1=C(/C)NNS(=O)(=O)c1ccc(C)cc1,> 100 µM,> 100 µM,> 100,> 100,> 100,> 100,> 100,> 100,> 100,> 100,,,,,,,,,,
Nc1nccc(-c2c(-c3ccc(F)cc3)ncn2C2CCNCC2)n1,> 25 µM and 17.6 µM,> 25 µM and 13 µM,> 25,> 25,> 25,> 25,> 25,> 25,> 25,> 25,10.2 µM and 3.45 µM,13.6 µM and 3.64 µM,> 25 µM and 7.29 µM,11.1 µM and 4.61 µM,5.29 µM and 3.85 µM,4.26 µM and 4.01 µM,5.92 µM and 2.92 µM,1.97 µM and 1.66 µM,8.88 µM and 2.16 µM,1.55 µM and 1.36 µM
CNNC1=NS(=O)(=O)c2cc(C#N)c(Cl)cc2S1,> 10 µM,> 10 µM,> 10,> 10,> 10,> 10,> 10,> 10,> 10,> 10,,,,,,,,,,
CCOC(=O)C1Cc2c(cc3c4c(cccc24)N(C(C)=O)C3)N(C)C1 (centres undefined),> 100 µM,> 100 µM,> 100,> 100,> 100,> 100,> 100,> 100,> 100,> 100,,,,,,,,,,
CC(C)(O)[C@@H]1CC[C@@]2(C)CCCC(O)C2(O)C1 (some centres undefined),> 100 µM,> 100 µM,> 100,> 100,> 100,> 100,> 100,> 100,> 100,> 100,,,,,,,,,,
CC(=O)O[C@H]1C(=O)[C@@]2(C)C(C(OC(=O)c3ccccc3)[C@]3(O)C[C@H](OC(=O)C(OC(=O)CCCC(=O)NCCCN(C)C)C(NC(=O)c4ccccc4)c4ccccc4)C(C)=C1C3(C)C)C1(OC(C)=O)COC1C[C@@H]2O (some centres undefined),33.5 µM,24.3 µM,> 100,7,11.4,3.19,45.4,> 85.3,45.6,8.71,,,,,,,,,,
COc1ccc(C2=N[C@@H](Cc3ccccc3)C(=O)Nc3ccsc32)cc1,36.7 µM,30 µM,33.8,20.2,19.1,20.9,27,29.5,9.04,14.4,11.6 µM,11.7 µM,3.87 µM,4.47 µM,5.81 µM,5.62 µM,3.75 µM,4.69 µM,2.32 µM,3.53 µM
COc1ccc(C2=C(Cl)c3cc(OC)c(OC)cc3C2OC)cc1OC (centres undefined),> 100 µM,> 100 µM,> 100,> 100,> 100,> 100,52.7,> 100,> 100,> 100,,,,,,,,,,
O=C(NCCCCCCCCCCCCNC(=O)c1cccc2ccccc12)c1cccc2ccccc12,> 100 µM,> 100 µM,68.2,> 100,30.4,> 100,> 100,> 100,> 74.4,> 100,,,,,,,,,,
Fc1cccc(COc2ccc(Nc3ncnc4sc(-c5cccs5)cc34)cc2Cl)c1,> 14 µM,8.83 µM,> 25,5.71,9.86,> 25,> 25,> 25,> 21.7,> 17,1.42 µM,2.46 µM,> 9.71 µM,1.59 µM,4.88 µM,4.07 µM,> 25 µM,9.32 µM,6.88 µM,7.63 µM
Cc1cc2nc3c4cc(O)ccc4n(CCN(C)C)c3nc2cc1C,5.2 µM,3.69 µM,2.11,2.6,12.4,7.8,> 100,5.07,2.04,1.99,2.06 µM,1.65 µM,0.337 µM,0.729 µM,0.676 µM,1.38 µM,0.368 µM,0.78 µM,0.403 µM,0.468 µM
O=C1NC(Cc2ccc(O)cc2)C(=O)N2CCCC12 (centres undefined),> 100 µM,> 100 µM,> 100,> 100,> 100,> 100,> 100,> 100,> 100,> 100,,,,,,,,,,
COc1ccc(C2CC(c3cccc(Nc4ccnc5cc(Cl)ccc45)c3)=NN2C=O)cc1 (centres undefined),34.8 µM,6.41 µM,29.2,54.8,27.6,> 36.4,> 100,18.3,4.2,> 100,0.677 µM,0.457 µM,0.394 µM,0.532 µM,0.747 µM,0.4 µM,0.33 µM,0.527 µM,0.325 µM,0.415 µM
CC(C)c1[nH]nc(C(N)=O)c1N=NN(C)C,> 100 µM,> 100 µM,65.4,> 100,> 100,> 100,> 100,> 100,> 100,> 100,,,,,,,,,,
N#Cc1cccc2c1Nc1ccccc1S2,> 100 µM,> 100 µM,> 100,> 100,> 100,> 100,> 100,> 100,> 100,> 100,,,,,,,,,,
CC(=O)c1ccc2c(c1)c1cc(C(C)=O)ccc1n2CCNC(C)C,1.31 µM,2.23 µM,10.5,0.78,4.63,3.4,1.81,4.31,1.89,1.81,0.296 µM,0.569 µM,0.304 µM,0.25 µM,0.717 µM,0.427 µM,0.332 µM,0.433 µM,0.398 µM,0.308 µM
CN1c2ccccc2N(C(=O)c2ccc([N+](=O)[O-])cc2)C(CC(=O)O)c2cccn21 (centres undefined),> 100 µM,> 100 µM,> 100,> 100,> 100,> 100,> 100,> 100,> 100,> 100,,,,,,,,,,
CCN(CCCN(C)C)Cc1cc(I)cc(C)c1O,32.5 µM,37.4 µM,39.3,37.1,34.4,44.7,23.3,90,38.6,38,16.3 µM,19.4 µM,18.5 µM,16.4 µM,17 µM,20 µM,6.95 µM,28.3 µM,20.4 µM,16.4 µM
C=C1CC[C@@H]2[C@](C)(COC(C)=O)[C@H](OC(C)=O)CC[C@@]2(C)[C@@H]1CC(Nc1ccc(S(=O)(=O)NC(C)=O)cc1)C1=CCOC1=O (some centres undefined),16 µM,19.1 µM,11.2,10.8,21.1,15.9,17.6,18.3,20.1,17.9,6.82 µM,8.68 µM,3.31 µM,2.59 µM,10.8 µM,5.11 µM,2.58 µM,8.41 µM,10.3 µM,6.72 µM
O=S(=O)(NCCCNc1nccc(-c2c(-c3ccc(O)cc3)nc3sccn23)n1)c1ccc(F)cc1,2.36 µM,2.81 µM,> 100,1.33,14.9,5.46,> 100,20.3,5.16,7.18,0.134 µM,1.18 µM,2.88 µM,0.0245 µM,3.67 µM,2.02 µM,1.67 µM,2.64 µM,1.55 µM,2.37 µM
NNC(=S)N/N=C(\C(=O)Nc1cccc(O)c1)C1C(=O)NC(=S)NC1=O,> 100 µM,> 100 µM,> 100,> 100,> 100,> 100,> 100,> 100,> 100,> 100,,,,,,,,,,
Cn1c2c(c3ccccc31)CCN(CCCCN1CCCCC1)C2=O,> 100 µM,> 100 µM,> 100,66,> 100,,> 100,> 100,> 100,> 100,,,,,,,,,,
